Reference: US20260274833A1 (NiKang Therapeutics, Inc., priority 2022, published 2026)

Biological target: T1, CDK2 (Homo sapiens, UniProt P24941)
T1 construct: endogenous in cells; host or cells: OVCAR3 cells
Assay: Phospho-RB measurement in OVCAR3 cells (HTRF phospho-RB cellular kit)
Type: cell-based
Conditions: inhibition of RB phosphorylation at S807/811 (HTRF, TR-FRET ratio 665/620), 24 h compound treatment, 0.3 to 10,000 nM
Procedure, shortened: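 IC50 came from a four-parameter logistic fit of the DMSO-normalized TR-FRET ratio (665/620 nm). That ratio reflects RB phosphorylation at S807/811, read with an HTRF antibody pair 4 h after adding lysate at room temperature.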

SMILES	IC50 [nM]
CNS(=O)(=O)Nc1cccc(-c2nc(C(C)(C)C)sc2-c2ccnc(NC3CCN(S(=O)(=O)N4CCNCC4)CC3)n2)c1F [Example 146, N-(3-(2-(tert-butyl)-5-(2-((1-(piperazin-1-ylsulfonyl)piperidin-4-yl)amino)-pyrimidin-4-yl)thiazol-4-yl)-2-fluoro-phenyl)-methylamine-sulfonamide]	3010
CN(C)CCOc1cccc2c1CN(S(=O)(=O)Nc1cccc(-c3nc(C(C)(C)C)sc3-c3ccnc(NC4CCN(S(C)(=O)=O)CC4)n3)c1F)C2 [Example 150, N-(3-(2-(tert-butyl)-5-(2-((1-(methylsulfonyl)piperidin-4-yl)amino)-pyrimidin-4-yl)thiazol-4-yl)-2-fluoro-phenyl)-4-(2-(dimethylamino)-ethoxy)-isoindoline-2-sulfonamide]	1840
CNCc1ccc2c(c1)CCN2S(=O)(=O)Nc1cccc(-c2nc(C(C)(C)C)sc2-c2ccnc(NC3CCN(S(C)(=O)=O)CC3)n2)c1F [Example 159, N-(3-(2-(tert-butyl)-5-(2-((1-(methylsulfonyl)-piperidin-4-yl)amino)-pyrimidin-4-yl)thiazol-4-yl)-2-fluoro-phenyl)-5-((methylamino)methyl)-indoline-1-sulfonamide]	4080
CNCc1ccc2c(c1)N(S(=O)(=O)Nc1cccc(-c3nc(C(C)(C)C)sc3-c3ccnc(NC4CCN(S(C)(=O)=O)CC4)n3)c1F)CC2 [Example 160, N-(3-(2-(tert-butyl)-5-(2-((1-(methylsulfonyl)-piperidin-4-yl)amino)-pyrimidin-4-yl)thiazol-4-yl)-2-fluoro-phenyl)-6-((methylamino)methyl)-indoline-1-sulfonamide]	4040
CN(C)C(=O)c1ccc2c(c1)CN(S(=O)(=O)Nc1cccc(-c3nc(C(C)(C)C)sc3-c3ccnc(NC4CCN(S(C)(=O)=O)CC4)n3)c1F)C2 [Example 161, 2-(N-(3-(2-(tert-butyl)-5-(2-((1-(methyl-sulfonyl)piperidin-4-yl)amino)pyrimidin-4~yl)thiazol~4-yl)-2-fluorophenyl)-sulfamoyl)-N,N-dimethyl-isoindoline-5-carboxamide]	1800
CC(C)(C)c1nc(-c2cccc(NS(=O)(=O)N3CCc4cnccc43)c2F)c(-c2ccnc(NC3CCN(S(C)(=O)=O)CC3)n2)s1 [Example 162, N-(3-(2-(tert-butyl)-5-(2-((1-(methylsulfonyl)piperidin-4-yl)amino)-pyrimidin-4-yl)thiazol-4-yl)-2-fluoro-phenyl)-2,3-dihydro-1H-pyrrolo [3,2-c]-pyridine-1-sulfonamide]	2120
CN(C)C(=O)c1cccc2c1CN(S(=O)(=O)Nc1cccc(-c3nc(C(C)(C)C)sc3-c3ccnc(NC4CCN(S(C)(=O)=O)CC4)n3)c1F)C2 [Example 163, 2-(N-(3-(2-(tert-butyl)-5-(2-((1-(methyl-sulfonyl)piperidin-4-yl)amino)pyrimidin-4-yl)thiazol-4-yl)-2-fluorophenyl)-sulfamoyl)-N, N-dimethyliso-indoline-4-carboxamide]	2430
CNCCOc1cccc2c1CN(S(=O)(=O)Nc1cccc(-c3nc(C(C)(C)C)sc3-c3ccnc(NC4CCN(S(C)(=O)=O)CC4)n3)c1F)C2 [Example 164, N-(3-(2-(tert-butyl)-5-(2-((1-(methylsulfonyl)-piperidin-4-yl)amino)-pyrimidin-4-yl)thiazol-4-yl)-2-fluoro-phenyl)-4-(2-(methylamino)-ethoxy)-isoindoline-2-sulfonamide]	2670
CC(C)(C)c1nc(-c2cccc(NS(=O)(=O)N3CCc4ccc(C(N)=O)cc43)c2F)c(-c2ccnc(NC3CCN(S(C)(=O)=O)CC3)n2)s1 [Example 168, 1-(N-(3-(2-(tert-butyl)-5-(2-((1-(methyl-sulfonyl)piperidin-4-yl)amino)pyrimidin-4-yl)thiazol-4-yl)-2-fluorophenyl)-sulfamoyl)-indoline-6-carboxamide]	1590

The next compounds have a lower IC50 than those just listed; values first:

IC50 [nM]	SMILES
1060	CC(C)(C)c1nc(-c2cccc(NS(=O)(=O)N3CC4CC4C3)c2F)c(-c2ccnc(NC3CCN(S(=O)(=O)N4CCNCC4)CC3)n2)s1 (centres unmarked) [Example 155, N-(3-(2-(tert-butyl)-5-(2-((1-(piperazin-1-ylsulfonyl)piperidin-4-yl)amino)-pyrimidin-4-yl)thiazol-4-yl)-2-fluorophenyl)-3-azabicyclo[3.1.0]-hexane-3-sulfonamide]
685	CC(C)(C)c1nc(-c2cccc(NS(=O)(=O)N3CCc4ccncc43)c2F)c(-c2ccnc(NC3CCN(S(C)(=O)=O)CC3)n2)s1 [Example 154, N-(3-(2-(tert-butyl)-5-(2-((1-(methylsulfonyl)-piperidin-4-yl)amino)-pyrimidin-4-yl)thiazol-4-yl)-2-fluoro-phenyl)-2,3-dihydro-1H-pyrrolo[2,3-c]-pyridine-1-sulfonamide]
488	CC(C)(C)c1nc(-c2cccc(NS(=O)(=O)N3Cc4ccc(C#N)cc4C3)c2F)c(-c2ccnc(NC3CCN(S(=O)(=O)N4CCNCC4)CC3)n2)s1 [Example 149, N-(3-(2-(tert-butyl)-5-(2-((1-(piperazin-1-ylsulfonyl)piperidin-4-yl)amino)-pyrimidin-4-yl)thiazol-4-yl)-2-fluoro-phenyl)-5-cyanoisoindoline-2-sulfonamide]
458	C[C@H]1Cc2ccccc2N1S(=O)(=O)Nc1cccc(-c2nc(C(C)(C)C)sc2-c2ccnc(NC3CCN(S(=O)(=O)N4CCNCC4)CC3)n2)c1F [Example 147, (S)-N-(3-(2-(tert-butyl)-5-(2-((1-(piperazin-1-ylsulfonyl)piperidin-4-yl)amino)pyrimidin-4-yl)thiazol-4-yl)-2-fluorophenyl)-2-methylindoline-1-sulfonamide]
410	CN(C)Cc1cccc2c1CN(S(=O)(=O)Nc1cccc(-c3nc(C(C)(C)C)sc3-c3ccnc(NC4CCN(S(C)(=O)=O)CC4)n3)c1F)C2 [Example 167, N-(3-(2-(tert-butyl)-5-(2-((1-(methylsulfonyl)-piperidin-4-yl)amino)-pyrimidin-4-yl)thiazol-4-yl)-2-fluoro-phenyl)-4-((dimethylamino)-methyl)-isoindoline-2-sulfonamide]
397	CN(C)C(=O)c1ccc2c(c1)N(S(=O)(=O)Nc1cccc(-c3nc(C(C)(C)C)sc3-c3ccnc(NC4CCN(S(C)(=O)=O)CC4)n3)c1F)CC2 [Example 152, 1-(N-(3-(2-(tert-butyl)-5-(2-((1-(methyl-sulfonyl)piperidin-4-yl)amino)pyrimidin-4-yl)thiazol-4-yl)-2-fluorophenyl)-sulfamoyl)-N,N-dimethylindoline-6-carboxamide]
389	CNC(=O)c1cccc2c1CN(S(=O)(=O)Nc1cccc(-c3nc(C(C)(C)C)sc3-c3ccnc(NC4CCN(S(C)(=O)=O)CC4)n3)c1F)C2 [Example 145, 2-(N-(3-(2-(tert-butyl)-5-(2-((1-(methyl-sulfonyl)piperidin-4-yl)amino)pyrimidin-4-yl)thiazol-4-yl)-2-fluorophenyl)-sulfamoyl)-N-methyliso-indoline-4-carboxamide]
355	CNC(=O)c1ccc2c(c1)N(S(=O)(=O)Nc1cccc(-c3nc(C(C)(C)C)sc3-c3ccnc(NC4CCN(S(C)(=O)=O)CC4)n3)c1F)CC2 [Example 151, 1-(N-(3-(2-(tert-butyl)-5-(2-((1-(methyl-sulfonyl)piperidin-4-yl)amino)pyrimidin-4-yl)thiazol-4-yl)-2-fluorophenyl)-sulfamoyl)-N-methylindoline-6-carboxamide]
277	CC(C)(C)c1nc(-c2cccc(NS(=O)(=O)N3CCC4(CC4)C3)c2F)c(-c2ccnc(NC3CCN(S(C)(=O)=O)CC3)n2)s1 [Example 166, N-(3-(2-(tert-butyl)-5-(2-((1-(methylsulfonyl)-piperidin-4-yl)amino)-pyrimidin-4-yl)thiazol-4-yl)-2-fluoro-phenyl)-5-azaspiro[2.4] heptane-5-sulfonamide]
227	CC(C)(C)c1nc(-c2cccc(NS(=O)(=O)N3Cc4ccc(F)cc4C3)c2F)c(-c2ccnc(NC3CCN(S(=O)(=O)N4CCNCC4)CC3)n2)s1 [Example 144, N-(3-(2-(tert-butyl)-5-(2-((1-(piperazin-1-ylsulfonyl)piperidin-4-yl)amino)-pyrimidin-4-yl)thiazol-4-yl)-2-fluoro-phenyl)-5-fluoro-isoindoline-2-sulfonamide]
210	CC1c2ccccc2CN1S(=O)(=O)Nc1cccc(-c2nc(C(C)(C)C)sc2-c2ccnc(NC3CCN(S(=O)(=O)N4CCNCC4)CC3)n2)c1F (centres unmarked) [Example 148, N-(3-(2-(tert-butyl)-5-(2-((1-(piperazin-1-ylsulfonyl)piperidin-4-yl)amino)-pyrimidin-4-yl)thiazol-4-yl)-2-fluoro-phenyl)-1-methylisoindoline-2-sulfonamide]
191	CN(C)CCN(C)S(=O)(=O)N1CCC(Nc2nccc(-c3sc(C(C)(C)C)nc3-c3cccc(NS(=O)(=O)N4Cc5ccncc5C4)c3F)n2)CC1 [Example 157, N-(3-(2-(tert-butyl)-5-(2-((1-(N-(2-(dimethyl-amino)ethyl)-N-methylsulfamoyl)piperidin-4-yl)amino)-pyrimidin-4-yl)thiazol-4-yl)-2-fluoro-phenyl)-1,3-dihydro-2H-pyrrolo [3,4-c]-pyridine-2-sulfonamide]
99.6	CC(C)(C)c1nc(-c2cccc(NS(=O)(=O)N3CCc4ccccc43)c2F)c(-c2ccnc(NC3CCN(S(=O)(=O)N4CCNCC4)CC3)n2)s1 [Example 158, N-(3-(2-(tert-butyl)-5-(2-((1-(piperazin-1-ylsulfonyl)piperidin-4-yl)amino)-pyrimidin-4-yl)thiazol-4-yl)-2-fluoro-phenyl)indoline-1-sulfonamide]
90.3	CN(C)CCN(C)S(=O)(=O)N1CCC(Nc2nccc(-c3sc(C(C)(C)C)nc3-c3cccc(NS(=O)(=O)N4Cc5ccccc5C4)c3F)n2)CC1 [Example 156, N-(3-(2-(tert-butyl)-5-(2-((1-(N-(2-(dimethylamino)ethyl)-N-methyl-sulfamoyl)piperidin-4-yl)amino)-pyrimidin-4-yl)thiazol-4-yl)-2-fluoro-phenyl)isoindoline-2-sulfonamide]
